The target in the test is T1, Sortase family protein (Staphylococcus aureus, UniProt Q9S446).
T1 sequence (Q9S446 whole entry): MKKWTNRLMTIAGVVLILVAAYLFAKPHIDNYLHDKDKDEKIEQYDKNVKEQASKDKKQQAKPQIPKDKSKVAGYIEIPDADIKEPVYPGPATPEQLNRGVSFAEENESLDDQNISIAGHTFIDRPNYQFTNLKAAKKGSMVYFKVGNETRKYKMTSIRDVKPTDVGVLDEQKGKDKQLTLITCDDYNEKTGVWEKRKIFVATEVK
The experiment in a line: Inhibition of Staphylococcus aureus ATCC 6538p SortA expressed in Escherichia coli using Dabcyl-QALPETGEE-Edans as substrate after 1 hr by fluorescence spectrophotometric method.

What is called IC50 is the concentration needed to halve the response being measured. High values mean a need for much substance, low ones inhibition by little substance.

`O=C(O)c1cc[c]([Hg][OH])cc1` gave an IC50 of 25 µM.

The record behind these values is BindingDB's records for doi:10.1021/acs.jnatprod.7b00121 (Seoul National University, 2017).
